This is an account of results in the supplement of paper PMC10307832.

What all share (assay): relative viability (nuclei count vs DMSO), 5 days (fraction); higher = more cells survive
Compound in the test “Masitinib + Vorinostat”: Cc1ccc(NC(=O)c2ccc(CN3CCN(C)CC3)cc2)cc1Nc1nc(-c2cccnc2)cs1 [Masitinib] + O=C(CCCCCCC(=O)Nc1ccccc1)NO [Vorinostat] (partner 1 µM)
The gist of the method:
(§1)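 Relative viability equals treated-well nuclei counts divided by vehicle-well nuclei counts. Counts came from 4× images of lung cancer cell lines grown in 1536-well plates for 5 days after pin-tool dosing on the day after seeding. Dosing used one drug alone or a fixed anchor-drug dose plus five library-drug doses (not always all listed) in √10 steps, and values are medians of duplicate plates.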

Compound in the test “Masitinib + Alpelisib”: Cc1ccc(NC(=O)c2ccc(CN3CCN(C)CC3)cc2)cc1Nc1nc(-c2cccnc2)cs1 [Masitinib] + Cc1nc(NC(=O)N2CCC[C@H]2C(N)=O)sc1-c1ccnc(C(C)(C)C(F)(F)F)c1 [Alpelisib] (partner 2 µM)
The gist of the method:
as §1

Compound in test [1]: CC1=CC(=CC=C1)NC2=NC(=CS2)C3=CC=NC=C3 + Nc1nc2[nH]cc(CCc3ccc(C(=O)N[C@@H](CCC(=O)O)C(=O)O)cc3)c2c(=O)[nH]1 [Pemetrexed] (partner 0.2 µM)
The gist of the method: as §1

Compound in test [2]: CC1=CC(=CC=C1)NC2=NC(=CS2)C3=CC=NC=C3 + C[C@@H](Oc1cc(-c2cnn(C3CCNCC3)c2)cnc1N)c1c(Cl)ccc(F)c1Cl [Crizotinib] (partner 1 µM)
The gist of the method:
as §1

Regarding UMC-11, the relative viability with Masitinib + Vorinostat (first compound 0.01 µM) worked out at 0.314; with Masitinib + Vorinostat (first compound 0.03162 µM), 0.342; with Masitinib + Vorinostat (first compound 0.1 µM), 0.375; in the test with Masitinib + Vorinostat (first compound 0.3162 µM), 0.366; with Masitinib + Vorinostat (first compound 1 µM), 0.359; in the test with Masitinib + Alpelisib (first compound 0.01 µM) it was 0.899. In addition, the relative viability with Masitinib + Alpelisib (first compound 0.03162 µM) worked out at 0.713; with Masitinib + Alpelisib (first compound 0.1 µM) it was 1.12; in the test with Masitinib + Alpelisib (first compound 0.3162 µM), 1.17; with Masitinib + Alpelisib (first compound 1 µM), 1.2; in test [1] (first compound 0.08 µM), 0.662; in test [1] (first compound 0.253 µM), 0.802. Also, the relative viability in test [1] (first compound 0.8 µM) was found to be 0.775; in test [1] (first compound 2.53 µM), 0.834; in test [1] (first compound 8 µM) it was 0.825; in test [2] (first compound 0.08 µM) it was 0.602; in test [2] (first compound 0.253 µM) it was 0.582; in test [2] (first compound 0.8 µM), 0.544. Further, the relative viability in test [2] (first compound 2.53 µM) stood at 0.579; in test [2] (first compound 8 µM), 0.72.
